The NIST ThermoML archive (doi:10.1016/j.fluid.2018.04.024)

Details: Liquid, Vibrating tube method

CCCCC(=O)OC [methyl pentanoate]
mass density [kg/m3]
Details	293.15 K	303.15 K	313.15 K	323.15 K	333.15 K	343.15 K	353.15 K	363.15 K
100 kPa	890.18	879.57	869.49	858.83	848.52	837.8	827.35	816.63
1000 kPa	890.39	880.52	869.89	859.81	849.45	839.04	828.43	817.89
3000 kPa	892.23	882.29	871.87	861.81	851.71	841.41	831.13	820.7
5000 kPa	893.59	884.05	873.76	863.85	853.79	843.76	833.48	823.32
10000 kPa	897.77	888.3	878.33	868.67	858.86	849.05	839.27	829.23
15000 kPa	901.59	892.37	882.44	873.18	863.66	854.23	844.84	835.46
20000 kPa	905.28	896.14	886.62	877.67	868.26	859.25	849.86	840.59
25000 kPa	908.91	899.89	890.61	881.64	872.72	863.69	854.79	845.61
30000 kPa	912.4	903.55	894.38	885.65	876.79	868.17	859.45	850.57
35000 kPa	915.63	906.97	898.09	889.44	880.79	872.41	863.9	855.31
40000 kPa	918.78	910.27	901.45	893.13	884.78	876.28	868	859.8
50000 kPa	925.12	916.73	908.24	900.12	892.02	884.03	875.94	868.09
60000 kPa	930.63	922.74	914.32	906.77	898.8	890.84	883.37	875.9

CCCC(=O)OC [methyl butanoate]
mass density [kg/m3]
Details	293.15 K	303.15 K	313.15 K	323.15 K	333.15 K	343.15 K	353.15 K	363.15 K
100 kPa	898.42	886.68	875.83	864.35	853.11	841.05	829.58	817.31
1000 kPa	898.68	887.75	876.3	865.42	854.08	842.4	830.8	818.87
3000 kPa	900.65	889.67	878.42	867.62	856.55	844.95	833.71	821.94
5000 kPa	902.15	891.54	880.45	869.76	858.82	847.57	836.31	824.91
10000 kPa	906.55	895.99	885.34	875.02	864.28	853.35	842.65	831.48
15000 kPa	910.63	900.35	889.92	879.93	869.44	858.9	848.71	838.19
20000 kPa	914.51	904.45	894.25	884.63	874.46	864.31	854.19	843.84
25000 kPa	918.33	908.4	898.53	888.92	879.2	869.1	859.51	849.26
30000 kPa	921.95	912.18	902.47	893.19	883.56	873.89	864.51	854.68
35000 kPa	925.38	915.86	906.46	897.21	887.79	878.44	869.35	859.76
40000 kPa	928.67	919.34	910.02	901.15	892.1	882.65	873.76	864.61
50000 kPa	935.38	926.18	917.24	908.62	899.8	890.89	882.24	873.56
60000 kPa	941.12	932.54	923.73	915.65	906.96	898.16	890.18	881.85
